The test concerns the target T1, VLA-4 (Homo sapiens, UniProt P05556+P13612).
T1 construct: host or cells: Jurkat clone E6-1
Kind of test: Adhesion of Jurkat cells to immobilized VCAM-1 (domains 1-3). It is filed as cell-based. The settings on record: adhesion of CFSE-labeled Jurkat cells to recombinant human VCAM-1 (domains 1-3) coated plates; compounds as yielded by solid phase synthesis, purity about 40-90%; read-out: IC50. A digest of the protocol:
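CFSE-labelled Jurkat E6-1 cells in Tris buffer pH 7.4 with 2 mM MnCl2 were added to wells coated with insect-cell-expressed human VCAM-1 domains 1-3 (0.5 μg/ml coating solution); labelled cells were incubated for 30 min at 37 °C with the VLA-4 inhibitor.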

Bounds are passed on as bounds.

T1 sequence (P13612 34-1032): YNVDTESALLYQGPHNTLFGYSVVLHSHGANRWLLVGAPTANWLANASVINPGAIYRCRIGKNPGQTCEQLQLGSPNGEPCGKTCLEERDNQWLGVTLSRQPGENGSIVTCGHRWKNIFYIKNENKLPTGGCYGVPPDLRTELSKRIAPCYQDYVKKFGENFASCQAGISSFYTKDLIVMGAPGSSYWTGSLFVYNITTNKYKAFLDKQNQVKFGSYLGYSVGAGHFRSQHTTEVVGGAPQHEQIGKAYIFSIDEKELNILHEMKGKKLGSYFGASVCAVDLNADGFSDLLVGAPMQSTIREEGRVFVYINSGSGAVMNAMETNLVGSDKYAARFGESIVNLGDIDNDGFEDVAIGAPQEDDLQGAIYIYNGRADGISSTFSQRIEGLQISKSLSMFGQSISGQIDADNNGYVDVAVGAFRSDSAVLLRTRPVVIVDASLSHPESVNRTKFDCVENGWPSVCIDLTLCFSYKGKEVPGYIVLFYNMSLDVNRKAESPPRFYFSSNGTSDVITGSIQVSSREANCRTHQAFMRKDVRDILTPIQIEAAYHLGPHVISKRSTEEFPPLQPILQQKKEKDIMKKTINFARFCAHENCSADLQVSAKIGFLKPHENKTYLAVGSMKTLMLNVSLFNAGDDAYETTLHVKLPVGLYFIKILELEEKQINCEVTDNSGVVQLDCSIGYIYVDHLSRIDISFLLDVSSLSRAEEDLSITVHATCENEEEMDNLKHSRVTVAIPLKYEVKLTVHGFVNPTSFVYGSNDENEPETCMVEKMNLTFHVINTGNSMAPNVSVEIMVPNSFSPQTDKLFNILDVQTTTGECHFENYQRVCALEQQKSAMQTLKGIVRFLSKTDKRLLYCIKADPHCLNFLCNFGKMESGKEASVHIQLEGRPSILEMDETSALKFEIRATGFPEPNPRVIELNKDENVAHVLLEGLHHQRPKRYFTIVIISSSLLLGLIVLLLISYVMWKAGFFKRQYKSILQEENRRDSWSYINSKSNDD
T1 sequence (P05556 21-798): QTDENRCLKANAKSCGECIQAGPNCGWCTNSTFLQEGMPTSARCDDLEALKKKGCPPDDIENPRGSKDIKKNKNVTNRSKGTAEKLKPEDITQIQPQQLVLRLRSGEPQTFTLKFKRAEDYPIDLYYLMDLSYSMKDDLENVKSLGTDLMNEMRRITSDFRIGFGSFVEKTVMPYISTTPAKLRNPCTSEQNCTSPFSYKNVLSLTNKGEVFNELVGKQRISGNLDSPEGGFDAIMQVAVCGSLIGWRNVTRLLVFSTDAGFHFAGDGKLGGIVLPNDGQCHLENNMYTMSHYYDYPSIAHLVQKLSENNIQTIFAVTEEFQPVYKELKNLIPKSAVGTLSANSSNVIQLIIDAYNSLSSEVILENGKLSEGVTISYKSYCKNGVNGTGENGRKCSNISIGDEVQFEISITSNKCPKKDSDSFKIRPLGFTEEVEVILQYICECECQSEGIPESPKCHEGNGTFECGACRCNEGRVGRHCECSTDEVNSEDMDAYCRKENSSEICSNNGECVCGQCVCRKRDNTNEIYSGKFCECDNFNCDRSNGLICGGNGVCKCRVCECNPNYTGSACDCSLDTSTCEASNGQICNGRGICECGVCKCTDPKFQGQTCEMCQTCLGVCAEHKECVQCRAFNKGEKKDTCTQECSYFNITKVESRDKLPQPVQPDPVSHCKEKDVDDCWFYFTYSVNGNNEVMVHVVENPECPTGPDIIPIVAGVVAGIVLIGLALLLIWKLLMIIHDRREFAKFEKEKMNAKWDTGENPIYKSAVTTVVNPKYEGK

Usually IC50 stands for the concentration needed to halve the response being measured. In the case of `CN1CCN(C(=O)Nc2ccc(C[C@H](NC(=O)C3CCCN(c4ncnc(NCC5CCCCC5)c4F)C3)C(=O)O)cc2)CC1` (stereo partly drawn) [Example 5.33], the IC50 lay within 2000 to 10000 nM.

Take `CN1CCN(C(=O)Nc2ccc(C[C@H](NC(=O)C3CCCN(c4ncnc(N)c4F)C3)C(=O)O)cc2)CC1` (stereo partly drawn) [Example 5.34]: the IC50 is at most 500 nM.

Consider `O=C(N[C@@H](Cc1ccc(NC(=O)N2CCOCC2)cc1)C(=O)O)C1CCCN(c2ncnc(NCC3CCCCC3)c2F)C1` (stereo partly drawn) [Example 5.35], for which the IC50 was at most 500 nM.

For `CN(c1ncnc(N2CCCC(C(=O)N[C@@H](Cc3ccc(NC(=O)N4CCOCC4)cc3)C(=O)O)C2)c1F)C1CCCCC1` (stereo partly drawn) [Example 5.36], the half-inhibitory concentration (IC50) fell in the range of 500 to 2000 nM.

For `O=C(N[C@@H](Cc1ccc(NC(=O)N2CCN(c3ccccc3)CC2)cc1)C(=O)O)C1CCCN(c2ncnc(NCc3ccncc3)c2F)C1` (stereo partly drawn) [Example 5.37], the concentration for half-maximal inhibition (IC50) is 500 to 2000 nM.

Take `CN(c1ncnc(N2CCCC(C(=O)N[C@@H](Cc3ccc(NC(=O)N4CCc5ccccc5C4)cc3)C(=O)O)C2)c1F)C1CCCCC1` (stereo partly drawn) [Example 5.38]: the half-inhibitory concentration (IC50) is 500 to 2000 nM.

For the molecule `O=C(N[C@@H](Cc1ccc(NC(=O)N2CCN(c3ccccc3)CC2)cc1)C(=O)O)C1CCCN(c2ncnc(NCCc3ccccn3)c2F)C1` (stereo partly drawn) [Example 5.39], the IC50 lay in the range of 500 to 2000 nM.

In the case of `CN1CCN(c2ncnc(N3CCCC(C(=O)N[C@@H](Cc4ccc(NC(=O)N5CCc6ccccc6C5)cc4)C(=O)O)C3)c2F)CC1` (stereo partly drawn) [Example 5.40], the half-maximal inhibitory concentration (IC50) was 500 to 2000 nM.

Turning to `CC1CCCCN1c1ncnc(N2CCCC(C(=O)N[C@@H](Cc3ccc(NC(=O)N4CCc5ccccc5C4)cc3)C(=O)O)C2)c1F` (stereo partly drawn) [Example 5.41], the IC50 is 500 to 2000 nM.

As for `Nc1ncnc(N2CCCC(C(=O)N[C@@H](Cc3ccc(NC(=O)N4CCN(c5ccccc5)CC4)cc3)C(=O)O)C2)c1F` (stereo partly drawn) [Example 5.42], the 50% inhibitory concentration (IC50) is at most 500 nM.

As to `CN(c1ncnc(N2CCCC(C(=O)N[C@@H](Cc3ccc(NC(=O)N4CCN(c5ccccc5)CC4)cc3)C(=O)O)C2)c1F)C1CCCCC1` (stereo partly drawn) [Example 5.43], the 50% inhibitory concentration (IC50) was in the range of 500 to 2000 nM.

Turning to `O=C(N[C@@H](Cc1ccc(NC(=O)N2CCc3ccccc3C2)cc1)C(=O)O)C1CCCN(c2ncnc(NCc3ccncc3)c2F)C1` (stereo partly drawn) [Example 5.44], the IC50 is 500 to 2000 nM.

In the case of `CN(Cc1ccccc1)c1ncnc(N2CCCC(C(=O)N[C@@H](Cc3ccc(NC(=O)N4CCOCC4)cc3)C(=O)O)C2)c1F` (stereo partly drawn) [Example 5.45], the concentration for half-maximal inhibition (IC50) lay in the range of 500 to 2000 nM.

For the molecule `COCCN(C)c1ncnc(N2CCCC(C(=O)N[C@@H](Cc3ccc(NC(=O)N4CCN(c5ccccc5)CC4)cc3)C(=O)O)C2)c1F` (stereo partly drawn) [Example 5.46], the half-inhibitory concentration (IC50) fell in the range of 500 to 2000 nM.

`O=C(N[C@@H](Cc1ccc(NC(=O)N2CCOCC2)cc1)C(=O)O)C1CCCN(c2ncnc(NCc3ccccn3)c2F)C1` (stereo partly drawn) [Example 5.47]: the concentration for half-maximal inhibition (IC50) was 500 to 2000 nM.

These data come from patent publication US6794386B2, “β-amino acid compounds as integrin antagonists” (Bayer Aktiengesellschaft, priority 2000, dated 2004).
